Results as given in patent US6025349A, “Phenyl.-substituted alkenylcarboguanidides carrying perfluoroalkyl groups, a process for their preparation, their use as a medicament or diagnostic agent, and also a medicament containing them” (priority 1994, dated 2000).
Where a name gives a salt, the structure may show the parent alone.

How the values were obtained:
[1] = target: T1, Na^+ /H^+ exchanger of rabbit erythrocytes (Oryctolagus cuniculus, UniProt P23791); test: Inhibition of the Na^+ /H^+ exchanger of rabbit erythrocytes (amiloride-sensitive sodium influx, flame photometry); type: cell-based; conditions: pH 7.4, 37° C., cholesterol-fed White New Zealand rabbits
T1 construct: from tissue; host or cells: rabbit blood (erythrocytes), White New Zealand rabbits
Source text: Inhibition of the Na^+ /H^+ exchanger of rabbit erythrocytes:
White New Zealand rabbits (Ivanovas) received a standard diet containing 2% cholesterol for six weeks in order to activate Na^+ /H^+ exchange and thus to be able to determine the Na^+ influx into the erythrocytes via Na^+ /H^+ exchange by flame photometry. The blood was taken from the ear arteries and anticoagulated by 25 IU/ml potassium heparin. A portion of each sample was used for duplicate determination of the hematocrit by centrifugation. Aliquots each of 100 μl were used to measure the initial Na^+ content of the erythrocytes.
In order to determine the amiloride-sensitive sodium influx, 100 μl of each blood sample were incubated in each case in 5 ml of a hyperosmolar salt/sucrose medium (mmol/l: 140 NaCl, 3 KCl, 150 sucrose, 0.1 ouabain, 20 tris-hydroxymethylaminomethane) at pH 7.4 and 37° C. The erythrocytes were then washed three times with ice-cold MgCl2 /ouabain solution (mmol/l: 112 MgCl2, 0.1 ouabain) and hemolyzed in 2.0 ml of distilled water. The intracellular sodium content was determined by flame photometry.
The net Na^+ influx was calculated from the difference between the initial sodium levels and the sodium content of the erythrocytes after incubation. The sodium influx which can be inhibited by amiloride was found from the difference in the sodium content of the erythrocytes after incubation with and without amiloride 3×10^-4 mol/l. The compounds according to the invention were also subjected to this process.

[2] = system: cardiac rhythm disturbances; conditions: cited from earlier work
rat hearts = conditions: isolated rat hearts; Eur. Heart J. 9 (suppl. 1): 167 (1988); cited from earlier work

T1 sequence (P23791 whole entry): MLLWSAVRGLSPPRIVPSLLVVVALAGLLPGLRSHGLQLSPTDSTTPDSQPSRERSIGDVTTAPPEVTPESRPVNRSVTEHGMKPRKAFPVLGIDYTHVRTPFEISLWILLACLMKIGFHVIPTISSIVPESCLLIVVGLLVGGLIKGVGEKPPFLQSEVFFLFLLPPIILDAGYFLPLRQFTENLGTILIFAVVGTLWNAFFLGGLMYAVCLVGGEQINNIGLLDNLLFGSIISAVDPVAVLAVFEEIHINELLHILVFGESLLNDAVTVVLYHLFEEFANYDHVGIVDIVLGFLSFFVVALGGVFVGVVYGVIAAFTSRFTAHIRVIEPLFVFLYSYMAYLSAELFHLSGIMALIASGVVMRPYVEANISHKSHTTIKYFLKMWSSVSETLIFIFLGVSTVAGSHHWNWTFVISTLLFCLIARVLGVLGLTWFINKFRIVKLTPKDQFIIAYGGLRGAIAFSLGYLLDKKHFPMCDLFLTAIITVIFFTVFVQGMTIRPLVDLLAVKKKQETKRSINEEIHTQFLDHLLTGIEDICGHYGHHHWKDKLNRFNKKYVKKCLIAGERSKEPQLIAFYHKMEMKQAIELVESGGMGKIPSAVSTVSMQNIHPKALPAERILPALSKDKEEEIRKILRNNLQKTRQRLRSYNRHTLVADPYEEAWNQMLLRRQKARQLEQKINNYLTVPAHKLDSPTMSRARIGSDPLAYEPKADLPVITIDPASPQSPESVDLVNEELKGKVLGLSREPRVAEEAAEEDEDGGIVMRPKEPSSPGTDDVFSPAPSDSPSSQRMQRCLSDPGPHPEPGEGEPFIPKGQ

Row | Structure (SMILES) | IC50 [1] | antiarrhythmic effect ([2]; Circulation 79, 1257-63 (1989)) | accompanying side effects ([2]; in vivo) | suppression of artificially induced ventricular fibrillation (rat hearts)
1 | C/C(C(=O)N=C(N)N)=C(/C)c1cc(C(F)(F)F)ccc1F [Example 10, Trans-2,3-Dimethyl-3-[2-Fluoro-5-Trifluoromethyl-Phenyl]-Acrylic Acid Guanidide] | < 1 µM | – | – | –
2 | N=C(N)NC(=O)c1nc(Cl)c(N)nc1N [amiloride] | – | only weak | blood pressure-lowering and saluretic effect | completely to suppress artificially induced ventricular fibrillation
3 | NC(N)=NC(=O)C=Cc1cccc(C(F)(F)F)c1 [Example 1, Meta-Trifluoromethylcinnamic Acid Guanidide Hydrochloride] | < 1 µM | – | – | –
4 | CCN(c1nc(N)c(C(=O)NC(=N)N)nc1Cl)C(C)C [ethylisopropylamiloride] | – | – | – | Even more potent than amiloride
5 | C/C(=C\c1cccc(C(F)(F)F)c1)C(=O)N=C(N)N [Example 3, Trans-2-Methyl-3-(3-Trifluoromethylphenyl)-Acrylic Acid Guanidide] | < 1 µM | – | – | –
